Patent publication US10464920B2, “Vicinal primary diamines associated with metal and/or free radical chelation motifs, and active against carbonyl and oxidative stress, and use thereof” (UNIVERSITE AMIENS PICARDIE JULES VERNE, priority 2015, dated 2019)

Assays:
[1] = tested on: human fibroblasts (MRC-5); experiment: Cytotoxicity, cellular viability (CCK-8/WST-8) on MRC-5; format: cell-based
Experimental: The cellular viability is evaluated by a colorimetric method based on the detection of the conversion of a salt of the tetrazolium (WST-8) by the metabolically active cells (CCK-8 kit, Sigma, Lyons, France) (Molecules, 2014, 19(8), 12048-12064; J. Pharmacol. Toxicol. Methods., 2007, 56(1), 58-62). Living cells have mitochondrial dehydrogenases that reduce the WST-8 (2-(2-methoxy-4-nitrophenyl)-3-(4-nitrophenyl)-5-(2,4-disulfophenyl)-2H-tetrazolium), monosodium salt) to formazan of an orange colour, which dissolves directly in the culture medium in the presence of 1-Methoxy PMS (1-methoxy-5-methylphenazinium methyl sulphate). After an incubation for 1 h at 37° C., the absorbance of the formazan is measured at 450 nm. The absorbance is directly proportional to the number of living cells.
Briefly, the cells are inoculated in 96-well plates at a rate of 5.10^3 cells per well in 100 μL of the suitable medium until subconfluence. The cells are then washed with D-PBS, then treated with various concentrations (10 μM, 100 μM) of the products to be tested in triplicates for 24 and 48 h. A positive control is carried out with 10% of DMSO. The CCK-8 (10 μL) solution is then added to each well for an incubation for 1 h at 37° C. The measurement of the absorbance is taken at 450 nm using a Perkin Elmer 2103 Envision® microplate reader.
The viability of the cells is expressed as a % of the control (untreated cells) by the mean±standard deviation of triplicates forming a representative experiment or of three independent experiments conducted in triplicate.

[2] = Formation of adducts with MGO, kinetic study by HPLC; format: physicochemical; settings: compound 10 mM, MGO 20 mM, 37° C.; for disappearance of the free scavenger to the benefit of adducts with the MGO: after 15 min of incubation
Experimental: The compounds to be tested are incubated at 37° C. in the presence of MGO or of MDA. A kinetic study aiming to report on the formation of adducts with the MGO or MDA is then carried out via HPLC analysis.
The compounds to be tested (30 μmol) are dissolved in PBS (1.5 mL). An aqueous solution (qsp 1.25 mL) of MGO at 40% in water (250 μmol) is then prepared and in parallel, MDA bis-(diOEt)-acetal (250 μmol) is set to react with a solution of HCl 1N (2 eq) in water (qsp 1.25 mL) for 1 h at room temperature. An aqueous solution of NaOH 0.05N is also required to neutralise the reaction medium (5 mL).
The solution of the compound to be tested (625 μL—final concentration in the medium=10 mM) is then set to react with the solution of MGO or of MDA prepared extemporaneously (125 μL—final concentration in the medium=20 mM) in the presence of NaOH 0.05 N (0.5 mL).
The various mixtures are then incubated in the oven at 37° C. for 24 h.
A sampling of each mixture (100 μL) is taken at regular intervals of time (0.25; 0.5; 1; 5 and 24 h) and stored at −20° C. in order to stop the reaction. After dilution in a MeCN/H2O 98:2 mixture at room temperature, the HPLC analysis is carried out on a Shimadzu LCMS-2020 apparatus (UV chromatogram at 190 nm and mass spectrum in positive electrospray ionisation mode (ESI+)) after separation on the Waters Acquity column using a gradient of solvents H2O+HCOOH 0.1%/MeCN+HCOOH 0.1% (98/2 for 2 min, then 55/45 for 2 min and 45/55 for 3 min) with a flow rate of 0.3 mL/min at 40° C. and an injection of volume of 1 (“detection mode: scan, interface voltage: tuning file, DL voltage: 100 V, Q-array DC: 40 V, Q-array RF: 40 V”). A blank is first of all carried out using a solution containing the reaction medium without scavenger. Then, a free scavenger solution at 10 mM is used as a negative control and the carnosine as a reference of the literature. The proportion of adducts formed with the MGO or MDA (generally, tR=4.1 to 6.8 min) is then measured in relation to the quantity of remaining free scavenger (generally, tR=0.8 to 4.6 min) after measurement of the area under the curve of the corresponding peaks on the UV spectrum (measurements taken for a representative sample).

[3] = tested on: low-density lipoproteins (LDLs); experiment: Antiradical properties: inhibition of lipid peroxidation in AAPH-induced oxidation of LDLs; format: biochemical; settings: for anti-radical properties compared with Dap-Pip and vitamin E: concentrations from 1 to 10 μM; for antioxidant effect: concentrations ranging from 1 to 100; for antioxidant properties: low concentrations of about 1 μM
Experimental: The antiradical properties of the various compounds are determined by inhibition of the lipid peroxidation in the in vitro model of the oxidation of the low-density lipoproteins (LDLs) (Free Radic. Biol. Med., 1992, 13, 341-390). The lipid peroxidation is initiated by the attack by free radicals of a double bond of a polyunsaturated fatty acid present in the LDLs. […] Once initiated, the oxidation of the LDLs is a chain reaction of lipid peroxidation generated by the free radicals. The oxidation in vitro of the LDLs is induced at 37° C. by the adding of the water-soluble compound 2,2′-Azobis(2-methylpropionamidine)dihydrochloride (AAPH), which generates free radicals during the spontaneous thermal breakdown thereof
Briefly, the oxidation, carried out in a 96-well plate, is induced at 37° C. by adding 20 μL of a solution of AAPH at 2 mM in D-PBS at 160 μL of LDL (100 μg/mL) in the presence or absence of 20 μL of the various solutions of the compounds to be tested dissolved in D-PBS (0.1 to 100 μM in final concentrations). The LDLs alone without adding AAPH are used as a negative control. Each oxidation is carried out in double. During the oxidation, the formation of the conjugated dienes is followed by the measurement of the optical density at 234 nm every 10 minutes for 8 h at 37° C. using a temperature-controlled TECAN spectrophotometer. The vitamin E (α-tocopherol) which is a powerful antioxidant recognised in this in vitro model is used as a reference molecule (J. Nutr. Biochem., 2012, 23, 845-51).

[4] = MRC-5, 10 μM, 24 h of treatment
[5] = MRC-5, 10 μM, 48 h of treatment
[6] = MRC-5, 100 μM, 24 h of treatment
[7] = MRC-5, 100 μM, 48 h of treatment
[8] = lower concentrations, 0.1 to 10 μM

NCC(N)CCCCNC(=O)CCn1cccc(O)c1=O (centres unmarked) [Compound 37b, N-(5,6-diaminohexyl)-3-(3-hydroxy-2-oxopyridin-1(2H)-yl)propanamide]
viability of the cells as a percentage of the untreated cells [1, 4]: 113%
viability of the cells as a percentage of the untreated cells [1, 5]: 103%
viability of the cells as a percentage of the untreated cells [1, 6]: 113%
viability of the cells as a percentage of the untreated cells [1, 7]: 101%
disappearance of the free scavenger to the benefit of adducts with the MGO [2]: almost total disappearance of the free scavenger

COc1cc(/C=C/C(=O)N2CCN(C(=O)CCC(N)CN)CC2)ccc1O (centres unmarked) [Compound 29a, (E)-4,5-diamino-1-(4-(3-(4-hydroxy-3-methoxyphenyl)acryloyl)piperazin-1-yl)pentan-1-one]
viability of the cells as a percentage of the untreated cells [1, 4]: 103%
viability of the cells as a percentage of the untreated cells [1, 5]: 104%
viability of the cells as a percentage of the untreated cells [1, 6]: 99%
viability of the cells as a percentage of the untreated cells [1, 7]: 103%
antioxidant / pro-oxidant behaviour ([3]; concentrations ranging from 25 to 100): antioxidants
antioxidant / pro-oxidant behaviour [3, 8]: pro-oxidants
adducts with the MGO with regards to the free scavenger ([2]; after 5 h of reaction, no HPLC separation, trend): majority presence of AdB

NCC(N)CCCNC(=O)CCn1cccc(O)c1=O (centres unmarked) [Compound 37a, N-(4,5-diaminopentyl)-3-(3-hydroxy-2-oxopyridin-1(2H)-yl)propanamide]
viability of the cells as a percentage of the untreated cells [1, 4]: 112%
viability of the cells as a percentage of the untreated cells [1, 5]: 107%
viability of the cells as a percentage of the untreated cells [1, 6]: 124%
viability of the cells as a percentage of the untreated cells [1, 7]: 105%
anti-radical properties compared with Dap-Pip and vitamin E [3]: higher than those of the 2nd generation Dap-Pip derivative, and even those of vitamin E
antioxidant effect [3]: increasing antioxidant effect
antioxidant properties [3]: best antioxidant properties
disappearance of the free scavenger to the benefit of adducts with the MGO [2]: almost total disappearance of the free scavenger

NCC(N)CCC(=O)NCCCn1cccc(O)c1=O (centres unmarked) [Compound 37c, 4,5-diamino-N-(3-(3-hydroxy-2-oxopyridin-1(2H)-yl)propyl)pentanamide]
viability of the cells as a percentage of the untreated cells [1, 4]: 97%
viability of the cells as a percentage of the untreated cells [1, 5]: 94%
viability of the cells as a percentage of the untreated cells [1, 6]: 89%
viability of the cells as a percentage of the untreated cells [1, 7]: 90%
anti-radical properties compared with Dap-Pip and vitamin E [3]: higher than those of the 2nd generation Dap-Pip derivative, and even those of vitamin E
antioxidant effect [3]: increasing antioxidant effect
antioxidant properties [3]: best antioxidant properties
disappearance of the free scavenger to the benefit of adducts with the MGO [2]: almost total disappearance of the free scavenger

NCC(N)CCCCNC(=O)c1cc(O)c(O)c(O)c1 (centres unmarked) [Compound 30b, N-(5,6-diaminohexyl)-3,4,5-trihydroxybenzamide]
viability of the cells as a percentage of the untreated cells [1, 4]: 98%
viability of the cells as a percentage of the untreated cells [1, 5]: 92%
viability of the cells as a percentage of the untreated cells [1, 6]: 101%
viability of the cells as a percentage of the untreated cells [1, 7]: 100%
anti-radical properties compared with Dap-Pip and vitamin E [3]: higher than those of the 2nd generation Dap-Pip derivative, and even those of vitamin E
antioxidant / pro-oxidant behaviour ([3]; concentrations ranging from 50 to 100): highly pro-oxidant
antioxidant / pro-oxidant behaviour [3, 8]: highly antioxidant
